Experimental data as given in patent publication EP0062019A1, “New phenyl-perhydroazepines” (priority 1981, dated 1982).

How the values were obtained:
rabbit right atria = assay: Chronotropic effect (heart frequency) in isolated spontaneously beating right atria; type: cell-based; conditions: Oryctolagus cuniculus; for EC50: iv, isolated right atria, rabbits pretreated with reserpine (5 mg/kg i.v.), Krebs-buffer pH 7.4, 32°C, read-out: HR EC50; for Emax: maximal effect compared with maximal effect of isoprenaline (intrinsic activity), rabbits pretreated with reserpine, read-out: HR ISA
Method: (§1) Pharmacological studies on cardiac effects on heart frequency and contractility in isolated right atria and papillary muscle from rabbit.
(§2) Rabbits with an average weight of 2.5 kg, pretreated with reserpine (5 mg/kg i.v.) about 16 hours before the experiment were used. The rabbits were killed by a blow and the hearts were rapidly removed. The right atria and a papillary muscle from the right ventricle were isolated and set up to contract isometrically in an organ bath. The bath contained 50 ml Krebs-buffer (pH 7.4) and the temperature was kept at 32°C.
(§3) The contractions were measured by means of a force displacement transducer (Grass Model FT03) coupled to a.Grass Model 7 Polygraph with a preampliphier (Grass Model 7PIF). ,
(§4) The spontaneously beating right atria was stretched to a resting tension high enough to measure the contractions and to trigger a tachograph for registration of the frequency. The papillary muscle was stretched to the length at which maximal tension was developed and was driven at a frequency of 1HZ by a current 20 per cent above threshold and with a duration of 5 msec.
(§5) After 60 min. equilibration, dose response curves to cumulative concentrations of isoprenaline were constructed for chronotropic effect, i.e. increase in frequency (atria) and positive inotropic effect, i.e. increase in contractility (papillary muscle). After wash-out similar curves were constructed for the compounds employed according to the invention. The positive inotropic agent dopamine was included for comparison.
(§6) In order to establish the maximal chronotropic and inotropic responses of the preparations, isoprenaline was added immediately after the maximal concentrations of the compounds. The maximal effects of the compounds compared with the maximal effect of isoprenaline are expressed as intrinsic activity (ISA).

[1] = tested on: rabbit right ventricle papillary muscle; assay: Positive inotropic effect (contractility) in isolated, electrically driven papillary muscle; type: cell-based; conditions: for EC50 / Emax: Oryctolagus cuniculus; for EC50: iv, papillary muscle driven at 1HZ, rabbits pretreated with reserpine (5 mg/kg i.v.), Krebs-buffer pH 7.4, 32°C, read-out: Tmax EC50; for Emax: maximal effect compared with maximal effect of isoprenaline (intrinsic activity), rabbits pretreated with reserpine, read-out: Tmax ISA
Method: as §1, §2, §3, §4, §5, §6

SMILES	EC50 (rabbit right atria) [µM]	Emax (rabbit right atria) [%]	EC50 [1] [µM]	Emax [1] [%]	EC50 for contractility relative to the EC50 for dopamine ([1]; fraction of the dopamine EC50)
NCCc1ccc(O)c(O)c1 [Dopamine]	38	97	36	77	–
CCCN1CCCCC(c2cccc(O)c2)C1 (stereo not shown) [Example 1, 3-(3-hydroxyphenyl)N-n-propylperhydroazepine]	0.35	31	11	37	about one third
CC(C)NCC(O)c1ccc(O)c(O)c1 (stereo not shown) [Isoprenaline]	0.003	100	0.01	100	–
